Measurements as given in patent publication EP0385663B1, “Heterocyclic cycloalkanes as inhibitors of 5-lipoxygenase” (ZENECA LIMITED, priority 1989, dated 1990).

Assays:
5-LO = assay: Test c): ex vivo assay, compound administered, blood collected, A23187 challenge, LTB₄ radioimmunoassay; assay type: in vivo
Description: (§1) As stated previously, the heterocyclic cycloalkanes of the formula I are inhibitors of the enzyme 5-LO. […] This test provides a measure of the intrinsic inhibitory properties against soluble 5-LO in an extracellular environment. • b) An in vitro assay system involving incubating a test compound with heparinised human blood, prior to challenge with the calcium ionophore A23187 and then indirectly measuring the inhibitory effects on 5-LO by assaying the amount of LTB₄ using the specific radioimmunoassay described by Carey and Forder (F. Carey and R.A. Forder, Brit. […] The effects of a test compound on the enzyme cyclooxygenase (which is involved in the alternative metabolic pathway for arachidonic acid and gives rise to prostaglandins, thromboxanes and related metabolites) may be measured at the same time using the specific radioimmunoassay for thromboxane B₂(TxB₂) described by Carey and Forder (see above). […] It permits the selectivity of the inhibitory effect on 5-LO or cyclooxygenase to be assessed. • c) An ex vivo assay system, which is a variation of test b) above, involving administration of a test compound (usually orally as the suspension produced when a solution of the test compound in dimethylsulphoxide is added to carboxymethylcellulose), blood collection, heparinisation, challenge with A23187 and radioimmunoassay of LTB₄ and TxB₂. […]

cyclooxygenase = biological target: T1, cyclooxygenase (Homo sapiens, UniProt P23219); assay: Test b): heparinised human blood challenged with A23187, TxB₂ radioimmunoassay; assay type: cell-based; details: read-out: IC₅₀ (TxB₂)
T1 construct: incubating a test compound with heparinised human blood; endogenous in cells; host or cells: blood cells (platelets) in heparinised human whole blood
T1 sequence (P23219 24-599): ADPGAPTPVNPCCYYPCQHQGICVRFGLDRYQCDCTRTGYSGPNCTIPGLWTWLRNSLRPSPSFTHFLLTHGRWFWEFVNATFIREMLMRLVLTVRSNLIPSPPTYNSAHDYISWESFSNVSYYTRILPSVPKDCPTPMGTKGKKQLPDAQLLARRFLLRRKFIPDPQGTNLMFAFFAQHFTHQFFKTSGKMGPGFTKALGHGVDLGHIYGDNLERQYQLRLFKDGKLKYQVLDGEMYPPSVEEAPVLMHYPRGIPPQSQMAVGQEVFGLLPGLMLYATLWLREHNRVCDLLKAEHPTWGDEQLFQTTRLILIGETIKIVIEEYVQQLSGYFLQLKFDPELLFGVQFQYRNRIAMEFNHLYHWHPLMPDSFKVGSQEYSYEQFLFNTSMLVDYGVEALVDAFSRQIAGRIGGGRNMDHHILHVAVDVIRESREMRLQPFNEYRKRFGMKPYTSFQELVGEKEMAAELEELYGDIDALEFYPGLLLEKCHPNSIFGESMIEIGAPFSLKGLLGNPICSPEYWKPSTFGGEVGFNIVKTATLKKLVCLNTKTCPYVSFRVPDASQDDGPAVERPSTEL
Description: as §1

CO[C@@H]1CCC[C@]1(OC)c1cccc(OCC#Cc2ccccn2)c1 (relative stereo) [Example 2, trans-1,2-dimethoxy-1-[3-(3-(2-pyridyl)prop-2-yn-1-yloxy)phenyl]cyclopentane]
oral ED₅₀(LTB₄) (5-LO): < 100 mg/kg
IC50 (cyclooxygenase): > 40 µM
